Where two headings read alike, the source gives them in different places.
How the values were obtained:
[1] = test system: platelet-activating factor (PAF) biosynthesis in human polymorphonuclear neutrophils (PMN); assay: platelet-activating factor biosynthesis in human polymorphonuclear neutrophils (in vitro phospholipase A2 assay); assay type: cell-based; settings: Polymorphonuclear neutrophil, human PMN
Experimental: The compounds of the invention are tested in an in vitro phospholipase A2 assay to determine the ability of the compounds to inhibit the biosynthesis of platelet-activating factor and LTB4 in purified human neutrophils.
A leukocyte enriched blood sample obtained from a healthy donor is procured by leukophoresis using a Haemonetics model 30+ blood processor (Biological Specialties, Inc., Lansdale, Penn.). The top "platelet-rich" layer is removed after a low speed spin (35 xg, 15 min, 25° C.) of the sample. The remaining cell suspension is centrifuged (400 xg, 10 min, 25° C.) to sediment the remaining cells. The supernatant is discarded and the cell pellet resuspended in 120 ml HBSS (without Ca^++ /Mg^++). The cell suspension is subjected to ficoll-hypaque sedimentation (Histopaque 1077, 400 xg, 30 min, 25° C.). Contaminating erythrocytes are lysed by hypotonic shock (1 min). The cells are then washed once with 40 ml of HBSS and resuspended with HBSS (without Ca^++ /Mg^++) to a concentration of 2.5×10^7 cells/ml for further use. Greater than 95% purity is obtained, as assessed by microscopic examination.
One ml of human PMN (2.5×10^7 cells/ml) is incubated with vehicle or drugs (10 μl) for 10 minutes at 30° C. After preincubation, an equal volume of HBSS (1 ml) containing 2.4 mM CaCl2, 6 μM calcium ionophore A23187 and 50 μCi [^3 H]-acetate is then incubated at 30° C. for 15 minutes. An aliquot (100 μl) of the reaction mixture is taken out and mixed with 900 μl of 15% ethanol. LTB4 is extracted by using solid phase extraction on reverse phase C18 columns to remove excess [^3 H]-acetate and PAD. The C18 column is prewashed once with 2 ml of ethanol and water. The sample aliquot is acidified with 0.1N HCl to pH 3 before applying to the column. The column is then washed with 2 ml of water followed by 2 ml of 15% ethanol and 2 ml of petroleum ether to remove excess labeled acetate. The sample is eluted with 2 ml of ethyl acetate. The collected samples are dried with nitrogen and resuspended in 0.5 ml RIA buffer. The quantity of LTB4 in the sample is obtained from RIA determination. For PAF determination, the reaction is terminated by addition of 5 ml chloroform:methanol:acetic acid (2:1:0.04, v/v/v). [^3 H]-PAF is obtained by Bligh and Dyer extraction. The chloroform phase is removed and dried under nitrogen. The residue is redissolved in 75 μl of chloroform:methanol (80:20, v/v). [^3 H]-PAF is resolved from other phospholipids by TLC on RPC18 plates with a solvent system of chloroform:methanol:water (2:3:1, v/v/v) and is quantitated using a Berthold automated TLC linear analyzer.
Data presented are the mean +/- s.d. of the values relative to control A23187 stimulated cells for each experiment assayed in triplicate. Percent inhibition when used is calculated as:
% Inhibition=100-[(x.div.Control)×100].
Dose response analysis is performed by non-linear regression analysis for curve fitting and IC50 determination.

[2] = test system: lipoxygenase (LTB4 or 5HETE synthesis); assay: inhibition of LTB4 and 5-HETE synthesis by rat glycogen-elicited polymorphonuclear leukocytes; assay type: cell-based, rat (female Wistar); settings: Leukocyte, rat PMN; for inhibition at 10 µM: + with * denotes potentiation
Text: This is especially true with respect to 5,12-diHETE, which is also denoted as LTB4 [see Ford-Hitchinson, J. Roy. Soc. Med., 74, 831 (1981)]. Compounds which inhibit the PLA2 -mediated release of arachidonic acid thereby effectively prevent the oxidation of arachidonic acid to the various leukotriene products via the lipoxygenase cascade. Accordingly, the specificity of action of PLA2 inhibitors can be determined by the activity of test compounds in this assay, which measures the ability of compounds to inhibit the synthesis of LTB4 and 5-HETE by rat glycogen-elicited polymorphonuclear leukocytes (PMN) in the presence of exogenous substrate.
(§1) Rat polymorphonuclear leukocytes (PMNs) are obtained from female Wistar rats (150-200 g) which receive an injection of 6% glycogen (10 ml i.p.). Rats are sacrificed 18-24 hours post injection by CO2 asphyxiation and the elicited cells are harvested by peritoneal lavage using physiological saline (0.9% NaCl). The exudate is centrifuged at 400 xg for 10 minutes. The supernatant fluid is discarded and the cell pellet is resuspended to a concentration of 2.0×10^7 cells/mL in HBSS containing Ca^++ and Mg^++ and 10 μM L-cysteine.
(§2) To 1 mL aliquots of cell suspension, test drugs or vehicle are added, then preincubated at 37° C. for 10 minutes. A23187 (1 μM), [^3 H]-AA (3.0 μCi/mL) and unlabeled AA (1 μM) are then added and the samples are further incubated for 10 minutes. The reaction is terminated by centrifugation and pelleting cells. Supernatants are then analyzed by HPLC analysis on a 15 cm×4.6 mm ID supelcosil LC-18 (Supelco)(3M) column, using a two solvent system at a flow rate of 1.4 mL total flow as follows:
Injections: 140 μL of each supernatant is injected directly onto column and ^3 H arachidonic acid metabolites are monitored using an on-line radioactivity detector (Ramona, IN/US, Fairfield, N.J.).
Co-chromatography with standard [^3 H] leukotriene B4 (LTB4) in medium of stimulated PMN exposed to drug is compared to that found in medium of stimulated cells exposed to no drug, generating percent inhibition.
Results are expressed as percent inhibition at a given compound dose or as an IC50 value.

[3] = test system: cyclooxygenase (PGE2 or TxB2 synthesis); assay: inhibition of synthesis of cyclooxygenase products PGE2 and TxB2 by rat polymorphonuclear leukocytes; assay type: cell-based, rat (female Wistar); settings: Leukocyte, rat PMN; for inhibition at 10 µM: + with * denotes potentiation
Experimental: as §1, §2
In this assay, the procedure of Example 58 is carried out as described. However, in order to determine cyclooxygenase activity, the samples are co-chromatographed with authentic reference [^3 H]-TxB2 or [^3 H]-PGE2.
The results are calculated as in Example 58 and presented below: […]

carrageenan paw edema = assay: rat carrageenan paw edema assay; assay type: in vivo, rat (Sprague-Dawley)
Experimental: The compounds of the invention are further tested in the rat carrageenan paw edema assay to determine their ability to inhibit the acute inflammatory response.
140-180 g Male Sprague-Dawley rats, in groups of 6 animals are injected subcutaneously in the right paw with 0.1 mL of 1% carrageenan at zero time. Mercury plethysmographic readings (mL) of the paw are made at zero time and 3 hours later. Test compounds are suspended or dissolved in 0.5% methylcellulose and given perorally 1 hour prior to carrageenan administration.
The increase in paw volume (edema in mL) produced by the carrageenan is measured. Paw edema is calculated (3 hour volume minus zero time volume), and percent inhibition of edema is determined. Unpaired Student's t-test is used to determine statistical significance.

Structure (SMILES)	inhibition at 25 µM [1] [%]	inhibition at 50 µM [1] [%]	further results
CCCCC/C=C\C/C=C\CCCCCCCC(=O)C1=C(O)COC1=O [Example 14, (Z,Z)-4-Hydroxy-3-(1-oxo-9,12-octadecadienyl)-2(5H)-furanone]	19	64	inhibition at 10 µM [1]: 16%
CCCCCCCCCCC/C=C\CCCCC(=O)C1=C(O)COC1=O [Example 18, (Z)-4-Hydroxy-3-(1-oxo-6-octadecenyl)-2(5H)-furanone]	53	47	–
CC/C=C\C/C=C\C/C=C\CCCCCCCC(=O)C1=C(O)COC1=O [Example 15, (Z,Z,Z)-4-Hydroxy-3-(1-oxo-9,12,15-octadecatrienyl)-2(5H)-furanone]	–	21	–
CCCCC/C=C\C/C=C\C/C=C\CCCCC(=O)C1=C(O)CSC1=O [Example 50, 4-Hydroxy-3-[(Z,Z,Z)-1-oxo-6,9,12-octadecatrienyl]-2(5H)-thiophenone]	–	–	inhibition at 10 µM [1]: 42%
O=C(CCCCCCC/C=C\c1ccc(Cl)cc1)C1=C(O)COC1=O [Example 35, 3-[(Z)-10-(4-chlorophenyl)-1-oxo-9-decenyl]-4-hydroxy-2(5H)-furanone]	–	5	–
CCCC/C=C\CCCCCCCC(=O)C1=C(O)CSC1=O [Example 48, 4-Hydroxy-3-[(Z)-1-oxo-9-tetra-decenyl]-2(5H)-thiophenone]	76	–	–
CCCCCCCCCCC/C=C\CCCCC(=O)C1=C(O)CSC1=O [Example 51, 4-Hydroxy-3-[(Z)-1-oxo-6-octadecenyl]-2(5H)-thiophenone]	–	70	–
CCCC/C=C\CCCCCCCC(=O)C1=C(O)COC1=O [Example 25, 4-Hydroxy-3-((Z)-1-oxo-9-tetradecenyl)-2(5H)-furanone]	–	47	inhibition at 10 µM ([2]; read-out: % Inhibition 5-HETE): 81%; inhibition at 10 µM ([2]; read-out: % Inhibition LTB4): 8%; inhibition at 10 µM ([3]; read-out: % Inhibition PGE2): 68%; inhibition at 10 µM ([3]; read-out: % Inhibition TxB2): 8%
CCCCC/C=C\C/C=C\C/C=C\CCCCC(=O)C1=C(O)COC1=O [Example 20, (Z,Z,Z)-4-Hydroxy-3-(1-oxo-6,9,12-octadecatrienyl)-2(5H)-furanone]	–	83	–
CCCCCCCC/C=C\CCCCCCCC(=O)C1=C(O)CSC1=O [Example 47, 4-Hydroxy-3-[(Z)-1-oxo-9-octadecenyl]-2(5H)-thiophenone]	–	35	–
CCCCCCCC/C=C\CCCCCCCC(=O)C1=C(O)COC1=O [Example 9, (Z)-4-Hydroxy-3-(1-oxo-9-octadecenyl)-2(5H)-furanone]	–	56	% Inhibition (carrageenan paw edema; 100 mg/kg peroral (dose column)): 41%; inhibition at 10 µM ([2]; read-out: % Inhibition LTB4): 1%; inhibition at 10 µM ([3]; read-out: % Inhibition TxB2): 31%
CCCCCCCCCC(=O)C1=C(O)COC1=O [Example 1, 4-Hydroxy-3-(1-oxodecyl)-2(5H)-furanone]	32	68	% Inhibition (carrageenan paw edema; 50 mg/kg peroral): 40%; inhibition at 50 µM ([2]; at 50 μM): 60%; inhibition at 50 µM ([3]; at 50 μM): 71%; inhibition at 10 µM [1]: 13%
CCCCC/C=C\C/C=C\CCCCCCCC(=O)C1=C(O)CSC1=O [Example 46, 4-Hydroxy-3[(Z,Z)-1-oxo-9,12-octadecadienyl]-2(5H)-thiophenone]	7	50	–
CCCCCC1CC1CC1CC1CCCCCCCC(=O)C1=C(O)COC1=O (centres unmarked) [Example 22, 4-Hydroxy-3-[1-oxo-8-[2-[(2-pentylcyclopropyl)methyl]cyclopropyl]octyl]-2(5H)-furanone]	49	67	inhibition at 10 µM [1]: 24%

Reference: US5242945A, “Tetronic and thiotetronic acid derivatives as phospholipase A2 inhibitors” (American Home Products Corporation, priority 1991, dated 1993)
